The supplement of paper PMC11208160

assay: recombinant barcode read abundance after kanamycin selection (control-corrected) (log10(CPM+1)); higher = more efficient recombination; sequences stand for … in AGTGCAGAGAAAATCGGCCAGTTTTCTCTGCCTGCAGTCCGCATGCCGT…AGATTTATGCAGCGGACTGCCTTTCTCCCAAAGTGATAAACCGGACAGTATCATGGACCGGTTTTCCCGGTAATCCGTATTTGCAAGGTTGGTTTCACT; site = the 11-nt target
How it was run: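 Recombination efficiency was calculated from barcode counts at recombinant junctions, normalized to counts per million, averaged and corrected by the control. Each value is given as log10(CPM+1). The constructs were Gibson-cloned oligos (promoter, target, barcode, J23119-driven first 104 bridge RNA bases) in a vector with the remaining 73 bp and a T7-inducible recombinase, co-electroporated into E. coli with a donor plasmid and plated in duplicate on chloramphenicol/ampicillin LB agar (control) or chloramphenicol/ampicillin/kanamycin with 0.1 mM IPTG.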
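Also: IS621 recombinase and bridge RNA in Escherichia coli cells.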

Row | Sequence | recombinant barcode read abundance (log10)
1 | CCTTTACCTTGGGTTCTAACCTGTTGCCT (site TCTTTACCTAG) | 0.171
2 | CGAACATCTTGGGTTCTAACCTGTTGCTT (site ACCTACCCTCC) | 0
3 | CGAACATCTTGGGTTCTAACCTGTTGCTT (site CGAACATCTAA) | 0.144
4 | CGAACGACTTGGGTTCTAACCTGTTGCCT (site CGAACGACTAA) | 0.157
5 | CGAACGACTTGGGTTCTAACCTGTTGCCT (site CGAACGACTAG) | 0.259
6 | CGAACTACTTGGGTTCTAACCTGTTGCGT (site CGAACTACTAA) | 0.22
7 | CGAACTACTTGGGTTCTAACCTGTTGCGT (site CGAACTACTAC) | 0.143
8 | CGAACTACTTGGGTTCTAACCTGTTGCGT (site CGAACTACTAG) | 0.109
9 | CGAACTACTTGGGTTCTAACCTGTTGCGT (site CGAACTACTAT) | 0.0569
10 | CGAAGATCTTGGGTTCTAACCTGTTGCCT (site CAAAGATCTAG) | 0.142
11 | CGAAGATCTTGGGTTCTAACCTGTTGCCT (site CCAAGATCTAG) | 0
12 | CGAAGATCTTGGGTTCTAACCTGTTGCCT (site CGAAGATCTAG) | 0.273
13 | CGAAGATCTTGGGTTCTAACCTGTTGCCT (site CTAAGATCTAG) | 0.069
14 | CGACACTCTTGGGTTCTAACCTGTTGCCT (site CAACACTCTAG) | 0.107
15 | CGACACTCTTGGGTTCTAACCTGTTGCCT (site CCACACTCTAG) | 0.164
16 | CGACACTCTTGGGTTCTAACCTGTTGCCT (site CGACACTCTAG) | 0.251
17 | CGACACTCTTGGGTTCTAACCTGTTGCCT (site CTACACTCTAG) | 0.0214
18 | CGACAGTCTTGGGTTCTAACCTGTTGCCT (site CGACAGTCTAG) | 0.687
19 | CGACAGTCTTGGGTTCTAACCTGTTGCCT (site TAGATTCCTTT) | 0.201
20 | CGACATACTTGGGTTCTAACCTGTTGCGT (site CGACATACTAC) | 0.593
21 | CGACATACTTGGGTTCTAACCTGTTGCGT (site GGACATGCTAC) | 0.0511
22 | CGACCCTCTTGGGTTCTAACCTGTTGCTT (site ACACCCTCTAA) | 0.178
23 | CGACCCTCTTGGGTTCTAACCTGTTGCTT (site CGACCCTCTAA) | 1.39
24 | CGACCTACTTGGGTTCTAACCTGTTGCTA (site CGACCTACTTA) | 0.088
25 | CGACCTACTTGGGTTCTAACCTGTTGCTA (site GTACCTACTTA) | 0.17
26 | CGACCTGCTTGGGTTCTAACCTGTTGCCT (site CGACCTGCTAG) | 0.246

Row | Sequence | recombinant barcode read abundance (log10)
27 | CGACCTGCTTGGGTTCTAACCTGTTGCCT (site CGCCCTACTAG) | 0.249
28 | CGACGAACTTGGGTTCTAACCTGTTGCCT (site CGACGAACTAG) | 0.201
29 | CGACGAACTTGGGTTCTAACCTGTTGCCT (site GTCAATCCTCC) | 0.0212
30 | CGACGTCCTTGGGTTCTAACCTGTTGCGG (site CGACGTCCTCC) | 1.74
31 | CGACGTCCTTGGGTTCTAACCTGTTGCGG (site TGAAGTCCTCC) | 0.00826
32 | CGACTTACTTGGGTTCTAACCTGTTGCAT (site ACGGGCTCTGA) | 0.103
33 | CGACTTACTTGGGTTCTAACCTGTTGCAT (site CGACTTACTAT) | 0.0348
34 | CGAGCTCCTTGGGTTCTAACCTGTTGCCT (site CGAGCTCCTAA) | 0.763
35 | CGAGCTCCTTGGGTTCTAACCTGTTGCCT (site CGAGCTCCTAC) | 0.582
36 | CGAGCTCCTTGGGTTCTAACCTGTTGCCT (site CGAGCTCCTAG) | 1.24
37 | CGAGCTCCTTGGGTTCTAACCTGTTGCCT (site CGAGCTCCTAT) | 0.157
38 | CGAGGCCCTTGGGTTCTAACCTGTTGCTT (site CGAGGCCCTAA) | 1.93
39 | CGAGGCCCTTGGGTTCTAACCTGTTGCTT (site GTCCTATCTGT) | 0.0488
40 | CGAGTGACTTGGGTTCTAACCTGTTGCCA (site CGAGTGACTTG) | 0.906
41 | CGAGTGACTTGGGTTCTAACCTGTTGCCA (site TTCCGTCCTAA) | 0.382
42 | CGATCGACTTGGGTTCTAACCTGTTGCAG (site CGACCGACTCT) | 0.401
43 | CGATCGACTTGGGTTCTAACCTGTTGCAG (site CGATCGACTCT) | 0.809
44 | CGATCGCCTTGGGTTCTAACCTGTTGCCT (site CGATCGCCTAG) | 0.339
45 | CGATCGCCTTGGGTTCTAACCTGTTGCCT (site GGACCGCCTAG) | 0.0952
46 | CGATGTGCTTGGGTTCTAACCTGTTGCCT (site CGATGTCCTAG) | 0.334
47 | CGATGTGCTTGGGTTCTAACCTGTTGCCT (site CGATGTGCTAG) | 0.535
48 | CGATTTCCTTGGGTTCTAACCTGTTGCAT (site CGATTTCCTAG) | 0
49 | CGATTTCCTTGGGTTCTAACCTGTTGCAT (site CGATTTCCTAT) | 0.0511
50 | CGCCATCCTTGGGTTCTAACCTGTTGCAT (site CGCCATCCTAT) | 0.134
51 | CGCCATCCTTGGGTTCTAACCTGTTGCAT (site CGCCCTCCTAT) | 0.227
52 | CGCCATCCTTGGGTTCTAACCTGTTGCAT (site CGCCGTCCTAT) | 0.0349

Row | Sequence | recombinant barcode read abundance (log10)
53 | CGCCATCCTTGGGTTCTAACCTGTTGCAT (site CGCCTTCCTAT) | 0.569
54 | CGCCCACCTTGGGTTCTAACCTGTTGCCT (site CGCCCACCTAG) | 0.0145
55 | CGCCCACCTTGGGTTCTAACCTGTTGCCT (site CTCCAACCTAG) | 0
56 | CGCCCTACTTGGGTTCTAACCTGTTGCCT (site CGACCTGCTAG) | 0.236
57 | CGCCCTACTTGGGTTCTAACCTGTTGCCT (site CGCCCTACTAG) | 0.239
58 | CGCCGTCCTTGGGTTCTAACCTGTTGCAT (site CGCCATCCTAT) | 0.0426
59 | CGCCGTCCTTGGGTTCTAACCTGTTGCAT (site CGCCCTCCTAT) | 0.103
60 | CGCCGTCCTTGGGTTCTAACCTGTTGCAT (site CGCCGTCCTAT) | 0.279
61 | CGCCGTCCTTGGGTTCTAACCTGTTGCAT (site CGCCTTCCTAT) | 0.099
62 | CGCCTAGCTTGGGTTCTAACCTGTTGCCT (site CGCCTAGCTAG) | 0.206
63 | CGCCTAGCTTGGGTTCTAACCTGTTGCCT (site CTCCTACCTAG) | 0.0925
64 | CGCCTCCCTTGGGTTCTAACCTGTTGCCT (site CGCCTCACTAG) | 0.179
65 | CGCCTCCCTTGGGTTCTAACCTGTTGCCT (site CGCCTCCCTAG) | 0.446
66 | CGCCTCCCTTGGGTTCTAACCTGTTGCCT (site CGCCTCGCTAG) | 0
67 | CGCCTCCCTTGGGTTCTAACCTGTTGCCT (site CGCCTCTCTAG) | 0.0882
68 | CGCCTCGCTTGGGTTCTAACCTGTTGCCT (site CGCCTCACTAG) | 0.07
69 | CGCCTCGCTTGGGTTCTAACCTGTTGCCT (site CGCCTCCCTAG) | 0.16
70 | CGCCTCGCTTGGGTTCTAACCTGTTGCCT (site CGCCTCGCTAG) | 0.0366
71 | CGCCTCGCTTGGGTTCTAACCTGTTGCCT (site CGCCTCTCTAG) | 0.259
72 | CGCGATCCTTGGGTTCTAACCTGTTGCCT (site CGCGATCCTAG) | 0.431
73 | CGCGATCCTTGGGTTCTAACCTGTTGCCT (site CGCGCTCCTAG) | 0.0201
74 | CGCGATCCTTGGGTTCTAACCTGTTGCCT (site CGCGGTCCTAG) | 0.468
75 | CGCGATCCTTGGGTTCTAACCTGTTGCCT (site CGCGTTCCTAG) | 0.265
76 | CGCGCAACTTGGGTTCTAACCTGTTGCCT (site CGCGCAACTAG) | 0.0454
77 | CGCGCAACTTGGGTTCTAACCTGTTGCCT (site CGCGTAACTAG) | 0.185
